| SMILES | melting point |
| --- | --- |
| CC(C)(C)OC(=O)CCC1CCC(N)CC1 (stereo not given) | 39 to 40 °C |
| COc1ccc(CC(C)CC(C(=O)C(CC(C)Cc2ccc(OC)c(OC)c2)N2C(=O)c3ccccc3C2=O)N2C(=O)c3ccccc3C2=O)cc1OC (stereo not given) | 128 °C |
| O=C(c1nccs1)c1cnn2c(-c3cccnc3)ccnc12 | 262 to 264 °C |
| N#Cc1cccc(NC2CCN(Cc3cc(F)cc(C(F)(F)F)c3)CC2)n1 | 115 °C |
| ClCCN1c2cc3c(cc2C(c2cccs2)=NCC1CCl)OCCO3 (stereo not given) | 184 to 187 °C |
| O=C(CCl)NCc1c(O)c(I)cc2c1CCCC2 | 119 to 125 °C |
| CCc1cc2c(s1)-n1c(C)nnc1C(CC(=O)O)N=C2c1ccc(Cl)cc1 (stereo not given) | 198 to 202 °C |
| Clc1ccc(-c2ccn3nccc3n2)cc1 | 178 to 180 °C |
| O=C(Nc1ccc(N2CCS(=O)(=O)CC2)c(C(F)(F)F)c1)N1CCc2cc(Oc3cc(Cl)ncn3)ccc21 | 248 to 255 °C |
| CN(C)C(=O)CCC(=O)NC1CCC(CCN2CCN(c3nccc4c3CCO4)CC2)CC1 (stereo not given) | 188 °C |
| COc1cc(C)nc2c(OCc3c(Cl)ccc(N)c3Cl)cccc12 | > 250 °C |
| CCCc1nc(NC)n2ncc(C(=O)c3ccccc3Cl)c2n1 | 116 to 118 °C |
| CC(C)=CCN1CC(=O)Nc2cc(S(=O)(=O)Oc3ccccc3)ccc21 | 132 °C |
| C=CC(C)c1cc(C)c2c(c1O)C(N(C)C(=O)c1cccnc1)C1CCCCC21 (stereo not given) | 183 to 184 °C |
| COC(=O)c1nc2n(c1C(=O)OC)-c1ccc(Cl)cc1C(c1ccccc1F)=NC2 | 206 to 207 °C |
| CCOC(=O)c1csc(-c2ccc3c(=O)n(CC(C)C)c(CNC(=O)OC(C)(C)C)c(-c4ccccc4)c3c2)n1 | 170 to 171 °C |
| CCC(NS(=O)(=O)c1ccc(F)cc1)P(=O)(Oc1ccccc1)Oc1ccccc1 (stereo not given) | 148 to 151 °C |
| COC(=O)CC[C@@H](NC(=O)[C@@H](NC(=O)OC(C)(C)C)[C@@H](C)OCc1ccccc1)C(N)=O | 131 to 132 °C |
| CS(=O)(=O)c1nccc(Oc2ccc(NC(=O)c3cc(F)cc(N4CCOCC4)c3)c3ccccc23)n1 | 173 to 175 °C |
| CC(C)(C)[Si](C)(C)OCc1ccc(C(=NO)C(F)(F)F)cc1 | 63 to 65 °C |
| CSC(=S)NCc1c[nH]c2ccccc12 | 132 to 133 °C |
| CC1=C(C(=O)c2ccc3c(c2)CCN(C(N)=O)C3)C(C)(C)CCC1 | 86.4 to 87.6 °C |
| Cc1nc[nH]c1CSCCN=C(NC#N)NCCCc1c[nH]cn1 | 140 to 142 °C |
| O=C(c1ccc(Cl)cc1)C1CCN(S(=O)(=O)N2CCCC[C@@H]2C(=O)NO)CC1 | 84.4 to 86.4 °C |

| SMILES | melting point |
| --- | --- |
| Cc1nn(-c2ccccn2)c2nc3ccccc3c(N(C)C)c12 | 98 to 101 °C |
| CN1CCC2(CC1)CNc1cc(Cl)ccc12 | 172 to 173 °C |
| COc1ccc2c(c1)c(CC(=O)NCC(C)(C)S)c(C)n2C(=O)c1ccc(Cl)cc1 | 177 to 178 °C |
| NC(=O)c1cnn2cccc2c1Nc1ccccc1 | 247 °C |
| Cc1ccccc1OS(=O)(=O)c1ccc(N2CCCNC2=O)cc1 | 161 to 163 °C |
| CC1CC(=O)NN=C1c1ccc(N)cc1 (single isomer, unassigned; (-)) | 203 to 204 °C |
| Cc1sc(N2CCCCC2)nc1CCl | 79 to 80 °C |
| O=C(O)CCCCCc1nc2ccccc2s1 | 71 to 72 °C |
| CCC(=O)N(Cc1cnc(Cl)s1)C(=N[N+](=O)[O-])NC | 89 to 90 °C |
| NC(=O)c1[nH]nnc1O | 191 to 192 °C |
| Cc1oc(-c2ccccc2)nc1COc1cc(CO)on1 | 99 to 100 °C |
| CCCCCCCCCCOc1cc(OCCCCCCCCCC)cc(N(CC(=O)OC)CC(=O)OC)c1 | 36 to 38 °C |
| CCC1=Nc2cccc(Cl)c2C(=O)C1 | 236 to 239 °C |
| O=C(Cn1cccc(O)c1=O)NCCCCCCNC(=O)Cn1cccc(O)c1=O | 240 to 242 °C |
| N#Cc1c(NCCCn2ccnc2)cccc1Oc1ccc(-c2cn(C3CCOC3)c3ncnc(N)c23)cc1 (stereo not given) | 110 °C |
| Cc1cccc(-c2[nH]c(C(C)C)nc2-c2ccc(F)c(-c3c[nH]cn3)c2)n1 | 268 to 270 °C |
| COc1ccc(C2=C(C#N)C(c3cccc4nonc34)c3c[nH]nc3N2)cc1 (stereo not given) | 244 °C |
| CC(=NOCCOc1ccc(C(=O)O)c(OC(=O)c2ccc(-c3ccccc3)cc2)c1)c1ccccc1 | 158 to 159 °C |
| CCCOc1c(OC)c(OC)cc(C)c1C(=O)c1c(Cl)cccc1Cl | 143 °C |
| Oc1ccc(Nc2cnc3cc(Cl)ccc3c2)cc1 | 218 °C |
| CC(C(=O)O)c1ccc(-c2ccccc2F)c(O)c1 (stereo not given) | 110 to 111 °C |
| Cc1noc(C(=O)N2CCCCC2)c1C(=O)O | 128 to 130 °C |
| N#Cc1ccc2[nH]cc(C3=CCN(CC4COc5cccnc5O4)CC3)c2c1 (stereo not given) | 165 °C |

The next lines start with the values.

| melting point | SMILES |
| --- | --- |
| 78 °C | CCCc1cc(O)c(C#N)s1 |
| 275 to 279 °C | COCCOc1ccccc1-c1cc2[nH]c3ccc(O)cc3c2c2c1C(=O)NC2=O |
| 116 to 117 °C | O=[N+]([O-])c1ccc(OCc2ccccn2)cc1 |
| 125 to 126 °C | CS(=O)(=O)c1ccc(Oc2cc(OCc3ccccc3)c3[nH]c(-c4ncc(CO)s4)cc3c2)cc1 |
| 154 to 155 °C | CC(C(N)=O)c1ccc2c(c1)C(=O)Cc1ccccc1O2 (stereo not given) |
| 170 °C | Cc1ccc2c(N)nc(-c3cccc4ccccc34)cc2c1 |
| 234 to 236 °C | CCN(CC)c1nc2n(n1)Cc1ccccc1-2 |
| 197 °C | CCCCCCCCCCCCCCCCSC(=O)Nc1ccc(NC(=O)NS(=O)(=O)c2ccc(OC)cc2)cc1 |
| 80 to 85 °C | ClCCCCSc1ccncc1 |
| 80 °C | CC(CN1CCCC1)N1c2ccccc2Sc2ccc(C(=O)NCc3cccc(Cl)c3)cc21 (racemic) |
| 89 to 90 °C | O=C(NCCc1ccc(O)c(F)c1)OCc1ccccc1 |
| 270 to 272 °C | CC(=O)Nc1cccc2c(=O)[nH]c3ccccc3c(=O)c12 |
| 131 to 133 °C | COc1ccc2[nH]c(SCc3nccc(N4CCCC4)c3Cl)nc2c1 |
| 55 to 62 °C | CC(C)[C@H](C[C@H](O)[C@H](C)NC(=O)OC(C)(C)C)C(=O)NN |
| 148 °C | CC=CCNc1cc(C(=O)O)cc(S(N)(=O)=O)c1Sc1ccc(NC(C)=O)cc1 |
| 113 to 114 °C | COC(=O)c1ccc(NC=O)cc1S(=O)(=O)NC(C)(C)C |
| 158 to 159 °C | CN(C)CC1COc2ccc(NC(=O)c3ccc(-c4ccc(Cl)cc4)cc3)cc2O1 (stereo not given) |
| 94 to 95 °C | CCOC(=O)C1(CCl)Nc2cc(C)cc(C)c2C(=O)N1c1ccccc1Cl (stereo not given) |
| 203 to 211 °C | COC(=O)c1c(C)nc2c(c1N)c1cc(Cl)ccc1n2C |
| 191 to 192 °C | CCCN(C(=O)c1cccc(-c2nc(=O)c3ccccc3s2)n1)C(=O)N(C)C |
| 131 to 132 °C | O=[N+]([O-])c1ccc(Oc2ccc(-n3cncn3)cc2)cc1 |
| 142 to 145 °C | COCN(C(=O)Cc1ccc(Cl)cc1)C(c1cncnc1C(F)(F)F)C(C)C (stereo not given) |
| 95 to 98 °C | O=C(COc1ccc(Cl)cc1)N[C@@H](Cc1ccccc1)C(=O)CSCc1ccco1 |
| 188 to 189 °C | O=C(Nc1cccnc1)c1cccc(-c2ccc3c(c2)C(Oc2ccc(Cl)cc2Cl)CC3)c1 (stereo not given) |
| 135 °C | O=C(NCc1ccccc1-c1ccccc1C(=O)NCCc1ccccn1)c1ccccc1 |
| 165 to 167 °C | CS(=O)(=O)c1ccc(-c2cnn(CC(F)(F)F)c(=O)c2SC2CCCCC2)cc1 |
| 125 to 127 °C | CN1C(=O)C(O)(c2ccccc2)c2cccc(Cl)c21 (stereo not given) |

| melting point | SMILES |
| --- | --- |
| 122 °C | CCOC(=O)C1=C(C)NN=C(CC)C1c1cccc2ccccc12 (stereo not given) |
| 130 to 132 °C | CCN(CC)CC(=O)c1cc(C(=O)c2ccc3ccccc3c2)cn1C |
| 186 to 187 °C | CCOC(=O)c1cn(C2CC2)c2c(F)c(-c3cc(C)nc(C)c3)c(F)cc2c1=O |
| 100 to 103 °C | COC(=O)NCC1Cc2cc(Cl)cc(C3CCCCC3)c2O1 (stereo not given) |
| 176 to 177 °C | C=CCOC(=O)c1ccc(NC(=O)C(=NO)c2ccc3c(c2)C(C)(C)CCC3(C)C)cc1 |
| 230 °C | CC1(C2CCCC2)Cc2cc(OCC(=O)O)c(Cl)c(Cl)c2C1=NO (stereo not given) |
| 210 °C | Cc1oc(-c2ccc(S(C)(=O)=O)cc2)c(Oc2ccc(F)cc2F)c(=O)c1Cl |
| 120 to 122 °C | Cc1ccc(Sc2nc(-c3ccccc3)cnc2N)cc1 |
| 122 to 128 °C | CCN1C(=O)C(C)(C)C(=O)N(C)c2cc(OCCCn3c(=O)c(-c4ccccc4)c(Cl)c4ccccc43)ccc21 |
| 113 to 114 °C | Cc1cc(=O)n(C)c(=O)n1C |
| 114 to 116 °C | CS(=O)(=O)NCCc1ccncc1 |
| 112 to 115 °C | Nc1cc(C2SCCCS2)c(Cl)cc1F |
| 103 to 105 °C | COC(=O)c1ccc(-c2nc(-c3cc(C)oc3C)cs2)cc1 |
| 130 to 133 °C | CCCCCCC(C)(Sc1cc(C(C)(C)C)c(O)c(C(C)(C)C)c1)Sc1cc(C(C)(C)C)c(O)c(C(C)(C)C)c1 |
| 84 to 86 °C | O=C1C=CC(O)(C(F)(F)F)C=C1 |
| 182 to 183 °C | Cn1nc(-c2ccccc2)c(N2CCOCC2)c(C=NO)c1=O |
| 81.5 to 85.5 °C | CN(C)CCCOc1ccc(N(C(=O)c2ccc(Cl)cc2)c2ccccc2)cc1 |
| 125 to 128 °C | CN1CCN(c2cc(Sc3ccccc3)nc(-c3ccccc3)n2)CC1 |
| 83.5 to 85 °C | COCCCNC(=O)OCCCc1ccc(OCCOC)cc1Oc1ncc(C(F)(F)F)cc1Cl |
| 164 to 166 °C | CC/C=C/c1nc(Cl)c(C=O)n1Cc1ccc(-c2ccccc2C(=O)O)cc1 |
| 125 to 126 °C | CC(OCc1ccc(-c2ccc(Cl)cc2)cc1)(C(=O)O)c1ccccc1 (stereo not given) |
| 123 to 126 °C | Nc1ccc(Oc2ncc(-c3ccccc3)c(C(F)(F)F)n2)cc1 |
| 222 to 223 °C | NS(=O)(=O)c1cc(C(=O)O)cc(OCc2ccsc2)c1-c1ccccc1 |
| 90 °C | CCCCCCCCOc1ccc(-c2ncc(OC(=O)[C@H]3CCCO3)cn2)cc1 |
| 81 to 82 °C | CCOC(=O)c1cc2c(nc1CCl)CCCCC2 |
| 236 to 237 °C | CCNC(=O)CC1CN=C(c2cc3cc(Oc4ccc(S(C)(=O)=O)nc4)cc(OC)c3[nH]2)S1 (stereo not given) |

— a melting point compilation (Tetko et al.; mined from patent text by program, amines drawn as free bases though some values may be those of a salt)
